Kd data for one compound are collected here from article PMC5080441, “A direct-sensing galactose chemoreceptor recently evolved in invasive strains of Campylobacter jejuni” (Nature Communications, 2016).

The target of this assay is Tlp11 (CcrG, Campylobacter ChemoReceptor for Galactose). In words: SPR (Biacore); STD-NMR. The assay is classed as binding, Campylobacter jejuni. In general terms: In SPR one partner is held on a chip, and binding of the other changes the refractive index at the surface.

Broadly, the Kd is the concentration at which binding is half-saturated. Read a low Kd as a tighter complex. In turn, `OC[C@H]1OC(O)[C@H](O)[C@@H](O)[C@H]1O` (stereo partly shown) [galactose] returned a Kd of 17 µM.
